Experimental data: PubChem BioAssay (NCI)
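Cultured in 96-well plates, cells were exposed to test compound for 48 hours across five concentrations. The concentration for 50% growth inhibition is given as GI50. TGI marks complete inhibition of growth.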

Tests used:
Assay in all cases: growth of human tumour cells (NCI), 48 h
MDA-MB-231 breast = test system: MDA-MB-231 breast
TK-10 renal = test system: TK-10 renal
LOX IMVI melanoma = test system: LOX IMVI melanoma
DU-145 prostate = test system: DU-145 prostate
SK-OV-3 ovarian = test system: SK-OV-3 ovarian
M14 melanoma = test system: M14 melanoma
HOP-62 NSCLC = test system: HOP-62 NSCLC
OVCAR-5 ovarian = test system: OVCAR-5 ovarian
SK-MEL-28 melanoma = test system: SK-MEL-28 melanoma
SN12C renal = test system: SN12C renal
HCT-116 colon = test system: HCT-116 colon
HL-60(TB) leukemia = test system: HL-60(TB) leukemia
NCI-H226 lung = test system: NCI-H226 lung
MCF7 breast = test system: MCF7 breast
A498 renal = test system: A498 renal
HS 578T breast = test system: HS 578T breast
UO-31 renal = test system: UO-31 renal
NCI-H460 lung = test system: NCI-H460 lung
IGROV1 ovarian = test system: IGROV1 ovarian
OVCAR-8 ovarian = test system: OVCAR-8 ovarian
SF-539 CNS = test system: SF-539 CNS
NCI/ADR-RES ovarian = test system: NCI/ADR-RES ovarian
SK-MEL-2 melanoma = test system: SK-MEL-2 melanoma
NCI-H23 lung = test system: NCI-H23 lung
HOP-92 NSCLC = test system: HOP-92 NSCLC
U251 CNS = test system: U251 CNS
HT29 colon = test system: HT29 colon
SNB-19 CNS = test system: SNB-19 CNS
ACHN renal = test system: ACHN renal
RXF 393 renal = test system: RXF 393 renal
UACC-257 melanoma = test system: UACC-257 melanoma
EKVX NSCLC = test system: EKVX NSCLC
SK-MEL-5 melanoma = test system: SK-MEL-5 melanoma
UACC-62 melanoma = test system: UACC-62 melanoma
SF-268 CNS = test system: SF-268 CNS
SF-295 CNS = test system: SF-295 CNS
HCT-15 colon = test system: HCT-15 colon
OVCAR-3 ovarian = test system: OVCAR-3 ovarian
CCRF-CEM leukemia = test system: CCRF-CEM leukemia
PC-3 prostate = test system: PC-3 prostate
NCI-H522 lung = test system: NCI-H522 lung
SW-620 colon = test system: SW-620 colon
K-562 leukemia = test system: K-562 leukemia
CAKI-1 renal = test system: CAKI-1 renal
HCC-2998 colon = test system: HCC-2998 colon
OVCAR-4 ovarian = test system: OVCAR-4 ovarian
A549 NSCLC = test system: A549 NSCLC
BT-549 breast = test system: BT-549 breast
786-0 renal = test system: 786-0 renal
MDA-MB-435 = test system: MDA-MB-435
COLO 205 colon = test system: COLO 205 colon
MOLT-4 leukemia = test system: MOLT-4 leukemia
RPMI-8226 leukemia = test system: RPMI-8226 leukemia
KM12 colon = test system: KM12 colon
SNB-75 CNS = test system: SNB-75 CNS
MALME-3M melanoma = test system: MALME-3M melanoma

SMILES: CC[C@H](C)[C@H](NC(=O)C12CC(NC)(C1)C2)C(=O)N(C)[C@H](C[C@@H](OC(C)=O)c1nc(C(=O)N[C@@H](Cc2ccccc2)C[C@H](C)C(=O)OC)cs1)C(C)C
- GI50 (MDA-MB-231 breast): 576 nM
- TGI (MDA-MB-231 breast): > 25000 nM
- GI50 (TK-10 renal): 3700 nM
- TGI (TK-10 renal): > 25000 nM
- GI50 (LOX IMVI melanoma): 209 nM
- TGI (LOX IMVI melanoma): > 25000 nM
- GI50 (DU-145 prostate): 199 nM
- TGI (DU-145 prostate): 3020 nM
- GI50 (SK-OV-3 ovarian): 786 nM
- TGI (SK-OV-3 ovarian): > 25000 nM
- GI50 (M14 melanoma): 237 nM
- GI50 (HOP-62 NSCLC): 542 nM
- TGI (HOP-62 NSCLC): > 25000 nM
- GI50 (OVCAR-5 ovarian): 1520 nM
- TGI (OVCAR-5 ovarian): > 25000 nM
- GI50 (SK-MEL-28 melanoma): 2130 nM
- TGI (SK-MEL-28 melanoma): > 25000 nM
- GI50 (SN12C renal): 585 nM
- TGI (SN12C renal): > 25000 nM
- GI50 (HCT-116 colon): 96.9 nM
- GI50 (HL-60(TB) leukemia): 55.7 nM
- TGI (HL-60(TB) leukemia): 163 nM
- GI50 (NCI-H226 lung): 1710 nM
- TGI (NCI-H226 lung): > 25000 nM
- GI50 (MCF7 breast): 43.9 nM
- TGI (MCF7 breast): > 25000 nM
- GI50 (A498 renal): 525 nM
- TGI (A498 renal): > 8000 nM
- GI50 (HS 578T breast): 234 nM
- TGI (HS 578T breast): 15100 nM
- GI50 (UO-31 renal): 1940 nM
- TGI (UO-31 renal): > 25000 nM
- GI50 (NCI-H460 lung): 282 nM
- TGI (NCI-H460 lung): > 25000 nM
- GI50 (IGROV1 ovarian): 181 nM
- TGI (IGROV1 ovarian): > 25000 nM
- GI50 (OVCAR-8 ovarian): 633 nM
- TGI (OVCAR-8 ovarian): > 25000 nM
- GI50 (SF-539 CNS): 421 nM
- TGI (SF-539 CNS): 1500 nM
- GI50 (NCI/ADR-RES ovarian): > 25000 nM
- TGI (NCI/ADR-RES ovarian): > 25000 nM
- GI50 (SK-MEL-2 melanoma): 171 nM
- GI50 (NCI-H23 lung): 790 nM
- TGI (NCI-H23 lung): > 25000 nM
- GI50 (HOP-92 NSCLC): 7170 nM
- TGI (HOP-92 NSCLC): > 25000 nM
- GI50 (U251 CNS): 434 nM
- TGI (U251 CNS): > 25000 nM
- GI50 (HT29 colon): 138 nM
- TGI (HT29 colon): 1330 nM
- GI50 (SNB-19 CNS): 615 nM
- TGI (SNB-19 CNS): > 25000 nM
- GI50 (ACHN renal): 1390 nM
- TGI (ACHN renal): > 25000 nM
- GI50 (RXF 393 renal): 160 nM
- TGI (RXF 393 renal): 1220 nM
- GI50 (UACC-257 melanoma): 19800 nM
- TGI (UACC-257 melanoma): > 25000 nM
- GI50 (EKVX NSCLC): 2130 nM
- TGI (EKVX NSCLC): > 25000 nM
- GI50 (SK-MEL-5 melanoma): 103 nM
- TGI (SK-MEL-5 melanoma): 999 nM
- GI50 (UACC-62 melanoma): 84.2 nM
- TGI (UACC-62 melanoma): > 25000 nM
- GI50 (SF-268 CNS): 355 nM
- TGI (SF-268 CNS): > 25000 nM
- GI50 (SF-295 CNS): 401 nM
- TGI (SF-295 CNS): 2170 nM
- GI50 (HCT-15 colon): 1110 nM
- TGI (HCT-15 colon): > 17100 nM
- GI50 (OVCAR-3 ovarian): 55 nM
- TGI (OVCAR-3 ovarian): 511 nM
- GI50 (CCRF-CEM leukemia): 221 nM
- TGI (CCRF-CEM leukemia): 2410 nM
- GI50 (PC-3 prostate): 208 nM
- TGI (PC-3 prostate): > 25000 nM
- GI50 (NCI-H522 lung): 34.6 nM
- TGI (NCI-H522 lung): 368 nM
- GI50 (SW-620 colon): 159 nM
- TGI (SW-620 colon): > 25000 nM
- GI50 (K-562 leukemia): 53.4 nM
- TGI (K-562 leukemia): > 25000 nM
- GI50 (CAKI-1 renal): 6420 nM
- TGI (CAKI-1 renal): > 25000 nM
- GI50 (HCC-2998 colon): 349 nM
- TGI (HCC-2998 colon): > 25000 nM
- GI50 (OVCAR-4 ovarian): 3830 nM
- TGI (OVCAR-4 ovarian): > 25000 nM
- GI50 (A549 NSCLC): 1110 nM
- TGI (A549 NSCLC): > 25000 nM
- GI50 (BT-549 breast): 97.2 nM
- TGI (BT-549 breast): 1020 nM
- GI50 (786-0 renal): 237 nM
- TGI (786-0 renal): > 11700 nM
- GI50 (MDA-MB-435): 29.7 nM
- TGI (MDA-MB-435): 250 nM
- GI50 (COLO 205 colon): 189 nM
- TGI (COLO 205 colon): 1560 nM
- GI50 (MOLT-4 leukemia): 649 nM
- TGI (MOLT-4 leukemia): > 25000 nM
- GI50 (RPMI-8226 leukemia): 80.6 nM
- TGI (RPMI-8226 leukemia): 5830 nM
- GI50 (KM12 colon): 179 nM
- TGI (KM12 colon): > 17600 nM
- GI50 (SNB-75 CNS): 92.8 nM
- TGI (SNB-75 CNS): > 25000 nM
- GI50 (MALME-3M melanoma): 329 nM
- TGI (MALME-3M melanoma): > 25000 nM
